# Patent US20070185122A1, “Use of efletirizine for treating persistent allergic rhinitis” (priority 2003, published 2007)
# Legend:
# histamine H1-receptor = histamine H1-receptor (Homo sapiens, UniProt P35367); test: in vitro affinity and selectivity for H1-receptors; format: binding
# [1] = system: persistent allergic rhinitis; test: clinical study of efletirizine dihydrochloride in persistent allergic rhinitis (T5SS, RQLQ, SF-36), placebo-controlled; format: in vivo, adult patients; conditions: patients with persistent allergic rhinitis
# Excerpt: A study relative to the clinical effect of efletirizine dihydrochloride is planed to establish on the intention to treat (ITT population) whether an approximately 6 month efletirizine treatment can improve the quality of life and clinical symptoms from adult patients suffering from persistent allergic rhinitis, when compared to placebo.
# Secondary parameters of efficacy include different durations of treatment, different symptoms, different quality of life questionnaires, the incidence of co-morbidities suspected to be linked to allergic rhinitis and pharmaco-economic variables. The safety of this long-term treatment with efletirizine is also evaluated.
# The target population of this study consists of adults aged more than 18 years suffering from persistent allergic rhinitis [WHO Initiative on Allergic Rhinitis and its Impact on Asthma (ARIA), 2000, pages S147-S149]. To be enrolled, the subjects need to have sufficient rhinitis symptoms during the selection period. Excluded are patients with ENT (Ear-Nose-Throat) or eye infection preceding initial visit. […]
# The severity of clinical symptoms is rated by the T5SS (sneezing, rhinorrhea, nasal pruritus, ocular pruritus and nasal congestion) evaluated each by a score from 0 to 3 each day. The impact on health related quality of life is measured using the Rhinoconjunctivitis Quality of Life Questionnaire (RQLQ, SF36) (E. JUNIPER and G. H. GUYATT, Development and testing of a new measure of health status for clinical trials in rhinoconjunctivitis, Clinical and Experimental Allergy 1991; 21:77-83; E. JUNIPER, Measuring Health Related Quality of Life in rhinitis, J. Allergy Clin. Immunol. 1997; 99:S742-9). […]
# At each of the visits, diary book entries (T5SS, RQLQ, SF-36, indirect cost pharmaco-economic parameters, concomitant medication, outpatient consultations and adverse events) are verified and transferred into the Clinical Record Form and direct cost pharmaco-economic parameters will be recorded. […]
# Adverse events are recorded by the patients on diary cards and discussed with the investigator at each visit. […]
# Chain of histamine H1-receptor (P35367 whole entry, species assumed): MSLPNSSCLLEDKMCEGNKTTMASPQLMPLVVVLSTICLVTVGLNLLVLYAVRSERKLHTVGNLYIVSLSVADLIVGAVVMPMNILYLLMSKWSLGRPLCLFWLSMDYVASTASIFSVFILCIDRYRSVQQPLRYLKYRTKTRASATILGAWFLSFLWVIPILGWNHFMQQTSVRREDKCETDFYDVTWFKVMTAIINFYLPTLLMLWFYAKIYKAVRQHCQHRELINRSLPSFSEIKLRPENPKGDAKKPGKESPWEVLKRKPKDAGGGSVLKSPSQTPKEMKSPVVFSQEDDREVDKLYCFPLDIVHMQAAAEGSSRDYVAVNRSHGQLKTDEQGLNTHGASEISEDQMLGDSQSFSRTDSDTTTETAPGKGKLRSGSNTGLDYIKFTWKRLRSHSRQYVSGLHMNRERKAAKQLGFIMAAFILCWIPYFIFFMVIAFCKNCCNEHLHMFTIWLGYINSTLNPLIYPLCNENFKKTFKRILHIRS
Structure (SMILES),affinity for H1-receptors (histamine H1-receptor),duration of effect on persistent rhinitis [1],duration of effect on quality of life [1],effect on nasal congestion [1]
"O=C(O)COCCN1CCN(C(c2ccc(F)cc2)c2ccc(F)cc2)CC1 [Efletirizine, 2-[2-[4-[Bis(4-fluorophenyl)methyl]-1-piperazinyl]ethoxy]acetic acid]",high affinity,,,
Cl.Cl.O=C(O)COCCN1CCN(C(c2ccc(F)cc2)c2ccc(F)cc2)CC1 [efletirizine dihydrochloride],,more than 4 weeks,more than 4 weeks,has an effect on nasal congestion
